Reference: patent US20230092890A1, “1, 3, 4-Oxadiazole derivative compounds as histone deacetylase 6 inhibitor, and the pharmaceutical composition comprising the same” (Chong Kun Dang Pharmaceutical Corp., priority 2019, published 2023)

Tests used:
[1] = biological target: T1, HDAC1 (Homo sapiens, UniProt Q13547); test: HDAC enzyme activity inhibition (in vitro), HDAC1 Fluorimetric Drug Discovery Assay Kit; format: biochemical; details: samples at 100, 1000 and 10000 nM; 37° C. 60 minutes; fluorescence Ex 390, Em 460; read-out: HDAC1 IC50
T1 construct: purchased Enzolifesciences BML-AK511
In short: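 Fluorescence read-out (Ex 390/Em 460) after developer step, 30 min at 37° C, following a 60-min 37° C enzyme reaction. Test concentrations: HDAC1 kit, 100–10000 nM (three levels); recombinant human HDAC6, 0.1–1000 nM (five levels).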

[2] = biological target: T2, HDAC6 human recombinant (Homo sapiens, UniProt Q9UBN7); test: HDAC enzyme activity inhibition (in vitro), HDAC6 assay; format: biochemical; details: samples at 0.1, 1, 10, 100 and 1000 nM; 37° C. 60 minutes; fluorescence Ex 390, Em 460; read-out: HDAC6 IC50
T2 construct: purchased Calbiochem 382180
T2 sequence (Q9UBN7 1-1215): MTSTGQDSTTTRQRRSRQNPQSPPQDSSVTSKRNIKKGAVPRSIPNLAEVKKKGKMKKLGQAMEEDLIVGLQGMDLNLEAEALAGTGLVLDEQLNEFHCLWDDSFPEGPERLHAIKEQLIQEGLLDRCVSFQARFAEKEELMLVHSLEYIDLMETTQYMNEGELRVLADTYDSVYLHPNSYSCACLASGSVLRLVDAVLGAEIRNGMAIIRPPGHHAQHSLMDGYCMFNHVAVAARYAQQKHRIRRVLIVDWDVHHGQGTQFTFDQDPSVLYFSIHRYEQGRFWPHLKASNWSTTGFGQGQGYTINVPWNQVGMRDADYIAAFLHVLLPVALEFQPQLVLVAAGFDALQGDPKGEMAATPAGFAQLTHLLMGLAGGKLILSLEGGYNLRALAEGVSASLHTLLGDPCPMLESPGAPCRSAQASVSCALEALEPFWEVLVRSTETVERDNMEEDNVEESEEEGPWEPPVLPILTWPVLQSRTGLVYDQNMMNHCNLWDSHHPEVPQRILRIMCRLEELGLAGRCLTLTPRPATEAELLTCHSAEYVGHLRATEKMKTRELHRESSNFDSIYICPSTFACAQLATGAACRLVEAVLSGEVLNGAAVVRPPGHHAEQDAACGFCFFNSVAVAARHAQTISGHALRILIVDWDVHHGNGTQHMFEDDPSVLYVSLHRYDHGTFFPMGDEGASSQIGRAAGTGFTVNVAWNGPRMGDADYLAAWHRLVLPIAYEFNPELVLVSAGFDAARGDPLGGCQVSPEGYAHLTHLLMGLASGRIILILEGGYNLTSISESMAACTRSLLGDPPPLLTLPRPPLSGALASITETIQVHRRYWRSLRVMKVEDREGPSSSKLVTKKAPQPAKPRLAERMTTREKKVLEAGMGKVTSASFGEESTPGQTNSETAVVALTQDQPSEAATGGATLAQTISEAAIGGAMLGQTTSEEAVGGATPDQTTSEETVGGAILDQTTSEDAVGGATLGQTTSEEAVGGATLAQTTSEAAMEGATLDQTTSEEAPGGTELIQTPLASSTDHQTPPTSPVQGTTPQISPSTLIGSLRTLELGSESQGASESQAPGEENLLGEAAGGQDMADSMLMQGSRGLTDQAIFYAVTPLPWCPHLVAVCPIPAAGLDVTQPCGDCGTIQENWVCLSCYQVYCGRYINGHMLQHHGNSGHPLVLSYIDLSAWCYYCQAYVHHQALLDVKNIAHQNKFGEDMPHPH
In short: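 Fluorescence (Ex 390, Em 460) read after a 37° C, 60 min enzyme reaction and a further 30 min developer step at 37° C. Uses recombinant human HDAC6; HDAC1 arm dosed at 100, 1000, 10000 nM.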

T1 sequence (Q13547 whole entry): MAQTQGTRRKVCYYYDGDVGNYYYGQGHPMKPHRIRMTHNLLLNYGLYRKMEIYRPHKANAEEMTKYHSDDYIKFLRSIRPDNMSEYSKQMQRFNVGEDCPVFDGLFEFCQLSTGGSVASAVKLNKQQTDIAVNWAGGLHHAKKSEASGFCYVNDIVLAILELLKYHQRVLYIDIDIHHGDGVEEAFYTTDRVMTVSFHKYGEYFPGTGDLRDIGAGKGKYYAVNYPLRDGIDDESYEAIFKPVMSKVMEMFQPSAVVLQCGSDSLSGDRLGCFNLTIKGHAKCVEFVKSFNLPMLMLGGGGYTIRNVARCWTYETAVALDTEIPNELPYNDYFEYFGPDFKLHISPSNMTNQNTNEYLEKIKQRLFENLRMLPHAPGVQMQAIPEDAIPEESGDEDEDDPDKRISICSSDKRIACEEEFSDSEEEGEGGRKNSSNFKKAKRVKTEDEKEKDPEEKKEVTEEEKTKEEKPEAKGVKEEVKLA

Structure (SMILES) | IC50 [1] | IC50 [2]
CN1CCC(n2c(=O)n(Cc3ccc(-c4nnc(C(F)F)o4)cc3F)c3cc(F)c(-c4ccco4)cc32)CC1 [Compound 114, 1-(4-(5-(difluoromethyl)-1,3,4-oxadiazole-2-yl)-2-fluorobenzyl)-6-fluoro-5-(furan-2-yl)-3-(1-methylpiperidine-4-yl)-1,3-dihydro-2H-benzo[d]imidazole-2-one] | > 10000 nM | 88 nM
CN1CCC(n2c(=O)n(Cc3ccc(-c4nnc(C(F)F)o4)cc3F)c3cc(F)c(-c4ccoc4)cc32)CC1 [Compound 115, 1-(4-(5-(difluoromethyl)-1,3,4-oxadiazole-2-yl)-2-fluorobenzyl)-6-fluoro-5-(furan-3-yl)-3-(1-methylpiperidine-4-yl)-1,3-dihydro-2H-benzo[d]imidazole-2-one] | > 10000 nM | 77 nM
CN1CCC(n2c(=O)n(Cc3ccc(-c4nnc(C(F)F)o4)cc3F)c3cc(F)c(-c4ccccc4F)cc32)CC1 [Compound 116, 1-(4-(5-(difluoromethyl)-1,3,4-oxadiazole-2-yl)-2-fluorobenzyl)-6-fluoro-5-(2-fluorophenyl)-3-(1-methylpiperidine-4-yl)-1,3-dihydro-2H-benzo[d]imidazole-2-one] | > 10000 nM | 84 nM
CN1CCC(n2c(=O)n(Cc3ccc(-c4nnc(C(F)F)o4)cc3F)c3cc(F)c(-c4cccnc4)cc32)CC1 [Compound 117, 1-(4-(5-(difluoromethyl)-1,3,4-oxadiazole-2-yl)-2-fluorobenzyl)-6-fluoro-3-(1-methylpiperidine-4-yl)-5-(pyridine-3-yl)-1,3-dihydro-2H-benzo[d]imidazole-2-one] | > 10000 nM | 24 nM
CN1CCC(n2c(=O)n(Cc3ccc(-c4nnc(C(F)F)o4)cc3F)c3cc(F)c(-c4ccncc4)cc32)CC1 [Compound 118, 1-(4-(5-(difluoromethyl)-1,3,4-oxadiazole-2-yl)-2-fluorobenzyl)-6-fluoro-3-(1-methylpiperidine-4-yl)-5-(pyridine-4-yl)-1,3-dihydro-2H-benzo[d]imidazole-2-one] | > 10000 nM | 42 nM
CN1CCC(n2c(=O)n(Cc3ccc(-c4nnc(C(F)F)o4)cc3F)c3cc(Br)ccc32)CC1 [Compound 119, 5-bromo-3-(4-(5-(difluoromethyl)-1,3,4-oxadiazole-2-yl)-2-fluorobenzyl)-1-(1-methylpiperidine-4-yl)-1,3-dihydro-2H-benzo[d]imidazole-2-one] | > 10000 nM | 80 nM
CN1CCC(n2c(=O)n(Cc3ccc(-c4nnc(C(F)F)o4)cc3F)c3cc(-c4cccc(F)c4)ccc32)CC1 [Compound 120, 3-(4-(5-(difluoromethyl)-1,3,4-oxadiazole-2-yl)-2-fluorobenzyl)-5-(3-fluorophenyl)-1-(1-methylpiperidine-4-yl)-1,3-dihydro-2H-benzo[d]imidazole-2-one] | > 10000 nM | 1310 nM
CN1CCC(n2c(=O)n(Cc3ccc(-c4nnc(C(F)F)o4)cc3F)c3cc(-c4cc(F)ccc4F)ccc32)CC1 [Compound 121, 3-(4-(5-(difluoromethyl)-1,3,4-oxadiazole-2-yl)-2-fluorobenzyl)-5-(2,5-difluorophenyl)-1-(1-methylpiperidine-4-yl)-1,3-dihydro-2H-benzo[d]imidazole-2-one] | > 10000 nM | 3150 nM
CN1CCC(n2c(=O)n(Cc3ccc(-c4nnc(C(F)F)o4)cc3F)c3cc(-c4ccc(C(F)(F)F)cc4)ccc32)CC1 [Compound 122, 3-(4-(5-(difluoromethyl)-1,3,4-oxadiazole-2-yl)-2-fluorobenzyl)-1-(1-methylpiperidine-4-yl)-5-(4-(trifluoromethyl)phenyl)-1,3-dihydro-2H-benzo[d]imidazole-2-one] | > 10000 nM | > 5000 nM
Cc1ccc(-c2ccc3c(c2)n(Cc2ccc(-c4nnc(C(F)F)o4)cc2F)c(=O)n3C2CCN(C)CC2)o1 [Compound 124, 3-(4-(5-(difluoromethyl)-1,3,4-oxadiazole-2-yl)-2-fluorobenzyl)-5-(5-methylfuran-2-yl)-1-(1-methylpiperidine-4-yl)-1,3-dihydro-2H-benzo[d]imidazole-2-one] | > 10000 nM | 950 nM

Now from value to molecule:

IC50 [1] | IC50 [2] | Structure (SMILES)
> 10000 nM | 602 nM | CN1CCC(n2c(=O)n(Cc3ccc(-c4nnc(C(F)F)o4)cc3F)c3cc(-c4cccnc4)ccc32)CC1 [Compound 125, 3-(4-(5-(difluoromethyl)-1,3,4-oxadiazole-2-yl)-2-fluorobenzyl)-1-(1-methylpiperidine-4-yl)-5-(pyridine-3-yl)-1,3-dihydro-2H-benzo[d]imidazole-2-one]
> 10000 nM | 29 nM | CN1CCC(n2c(=O)n(Cc3ccc(-c4nnc(C(F)F)o4)cc3)c3cc(Br)ccc32)CC1 [Compound 126, 5-bromo-3-(4-(5-(difluoromethyl)-1,3,4-oxadiazole-2-yl)benzyl)-1-(1-methylpiperidine-4-yl)-1,3-dihydro-2H-benzo[d]imidazole-2-one]
> 10000 nM | 798 nM | CN1CCC(n2c(=O)n(Cc3ccc(-c4nnc(C(F)F)o4)cc3)c3cc(-c4cc(F)ccc4F)ccc32)CC1 [Compound 128]
> 10000 nM | > 3000 nM | CN1CCC(n2c(=O)n(Cc3ccc(-c4nnc(C(F)F)o4)cc3)c3cc(-c4ccc(C(F)(F)F)cc4)ccc32)CC1 [Compound 129]
> 10000 nM | 288 nM | Cc1ccc(-c2ccc3c(c2)n(Cc2ccc(-c4nnc(C(F)F)o4)cc2)c(=O)n3C2CCN(C)CC2)o1 [Compound 130]
> 10000 nM | 606 nM | Cc1noc(C)c1-c1ccc2c(c1)n(Cc1ccc(-c3nnc(C(F)F)o3)cc1)c(=O)n2C1CCN(C)CC1 [Compound 131, 3-(4-(5-(difluoromethyl)-1,3,4-oxadiazole-2-yl)benzyl)-5-(3,5-dimethylisooxazole-4-yl)-1-(1-methylpiperidine-4-yl)-1,3-dihydro-2H-benzo[d]imidazole-2-one]
> 10000 nM | 281 nM | CN1CCC(n2c(=O)n(Cc3ccc(-c4nnc(C(F)F)o4)cc3)c3cc(-c4cccnc4)ccc32)CC1 [Compound 132, 3-(4-(5-(difluoromethyl)-1,3,4-oxadiazole-2-yl)benzyl)-1-(1-methylpiperidine-4-yl)-5-(pyridine-3-yl)-1,3-dihydro-2H-benzo[d]imidazole-2-one]
> 10000 nM | 20 nM | CN1CCC(n2c(=O)n(Cc3ccc(-c4nnc(C(F)F)o4)cn3)c3ccc(-c4cccc(F)c4)cc32)CC1 [Compound 133, 1-((5-(5-(difluoromethyl)-1,3,4-oxadiazole-2-yl)pyridine-2-yl)methyl)-5-(3-fluorophenyl)-3-(1-methylpiperidine-4-yl)-1,3-dihydro-2H-benzo[d]imidazole-2-one]
> 10000 nM | 20 nM | CN1CCC(n2c(=O)n(Cc3ccc(-c4nnc(C(F)F)o4)cn3)c3ccc(-c4ccccc4F)cc32)CC1 [Compound 134, 1-((5-(5-(difluoromethyl)-1,3,4-oxadiazole-2-yl)pyridine-2-yl)methyl)-5-(2-fluorophenyl)-3-(1-methylpiperidine-4-yl)-1,3-dihydro-2H-benzo[d]imidazole-2-one]
> 10000 nM | 19 nM | CN1CCC(n2c(=O)n(Cc3ccc(-c4nnc(C(F)F)o4)cn3)c3ccc(-c4ccncc4)cc32)CC1 [Compound 135, 1-((5-(5-(difluoromethyl)-1,3,4-oxadiazole-2-yl)pyridine-2-yl)methyl)-3-(1-methylpiperidine-4-yl)-5-(pyridine-4-yl)-1,3-dihydro-2H-benzo[d]imidazole-2-one]
